From ChEMBL document CHEMBL3351875, “Synthesis of Deuterated Benzopyran Derivatives as Selective COX-2 Inhibitors with Improved Pharmacokinetic Properties” (ACS Med Chem Lett, 2014)
Blank lines part the entries; values can stand above or below the compound they belong to.

Key:
[1] = system: Rattus norvegicus; assay: Volume of distribution in Sprague-Dawley rat at 10 mg/kg, po measured during 1 to 24 hrs by LC-MS method; format: ADME, organism-based; design: dose 10 mg/kg, route oral; details: in vivo
[2] = Cmax in Sprague-Dawley rat at 10 mg/kg, po measured during 1 to 24 hrs by LC-MS method; format: ADME, organism-based; design: dose 10 mg/kg, route oral; details: in vivo
[3] = system: Rattus norvegicus; assay: Antiinflammatory activity in orally dosed Sprague-Dawley rat model of carrageenan-induced air pouch inflammation assessed as reduction in PGE2 level by ELISA method; format: functional, organism-based
[4] = system: Rattus norvegicus; assay: AUC (0 to infinity) in Sprague-Dawley rat at 1 mg/kg, iv measured during 1 to 24 hrs by LC-MS method; format: ADME, organism-based, Plasma; design: time infinity, dose 1 mg/kg, route intravenous; details: in vivo
[5] = system: Rattus norvegicus; assay: Tmax in Sprague-Dawley rat at 10 mg/kg, po measured during 1 to 24 hrs by LC-MS method; format: ADME, organism-based; design: dose 10 mg/kg, route oral; details: in vivo
[6] = biological target: Prostaglandin G/H synthase 1 (Homo sapiens, UniProt P23219); assay: Inhibition of human recombinant COX1 pre-incubated for 15 mins before fluorometric substrate addition by fluorescence based assay
[7] = system: Rattus norvegicus; assay: (§1) Apparent oral clearance in Sprague-Dawley rat at 10 mg/kg, po measured during 1 to 24 hrs by LC-MS method; format: ADME, organism-based; design: dose 10 mg/kg, route oral; details: in vivo
[8] = Cmax in Sprague-Dawley rat at 1 mg/kg, iv measured during 1 to 24 hrs by LC-MS method; format: ADME, organism-based; design: dose 1 mg/kg, route intravenous; details: in vivo
[9] = system: Rattus norvegicus; assay: (§2) AUC (0 to infinity) in Sprague-Dawley rat at 10 mg/kg, po measured during 1 to 24 hrs by LC-MS method; format: ADME, organism-based, Plasma; design: time infinity, dose 10 mg/kg, route oral; details: in vivo
[10] = system: Rattus norvegicus; assay: (§3) Oral bioavailability in Sprague-Dawley rat at 10 mg/kg measured during 1 to 24 hrs by LC-MS method; format: ADME, organism-based; details: in vivo
[11] = system: Rattus norvegicus; assay: Half life in Sprague-Dawley rat at 1 mg/kg, iv measured during 1 to 24 hrs by LC-MS method; format: ADME, organism-based; design: dose 1 mg/kg, route intravenous; details: in vivo
[12] = system: Rattus norvegicus; assay: Half life in Sprague-Dawley rat at 10 mg/kg, po measured during 1 to 24 hrs by LC-MS method; format: ADME, organism-based; design: dose 10 mg/kg, route oral; details: in vivo
[13] = Volume of distribution in Sprague-Dawley rat at 1 mg/kg, iv measured during 1 to 24 hrs by LC-MS method; format: ADME, organism-based; design: dose 1 mg/kg, route intravenous; details: in vivo
[14] = Apparent oral clearance in Sprague-Dawley rat at 1 mg/kg, iv measured during 1 to 24 hrs by LC-MS method; format: ADME, organism-based; design: dose 1 mg/kg, route oral; details: in vivo
[15] = Cmax in Sprague-Dawley rat at 2.5 mg/kg, po measured during 1 to 24 hrs by LC-MS method; format: ADME, organism-based; design: dose 2.5 mg/kg, route oral; details: in vivo
[16] = system: Rattus norvegicus; assay: Half life in Sprague-Dawley rat at 2.5 mg/kg, po measured during 1 to 24 hrs by LC-MS method; format: ADME, organism-based; design: dose 2.5 mg/kg, route oral; details: in vivo
[17] = (§4) Apparent oral clearance in Sprague-Dawley rat at 2.5 mg/kg, po measured during 1 to 24 hrs by LC-MS method; format: ADME, organism-based; design: dose 2.5 mg/kg, route oral; details: Sprague-Dawley, in vivo
[18] = system: Rattus norvegicus; assay: Tmax in Sprague-Dawley rat at 2.5 mg/kg, po measured during 1 to 24 hrs by LC-MS method; format: ADME, organism-based; design: dose 2.5 mg/kg, route oral; details: in vivo
[19] = system: Rattus norvegicus; assay: AUC (0 to infinity) in Sprague-Dawley rat at 2.5 mg/kg, po measured during 1 to 24 hrs by LC-MS method; format: ADME, organism-based, Plasma; design: dose 2.5 mg/kg, route oral, time infinity; details: in vivo
[20] = (§5) Oral bioavailability in Sprague-Dawley rat at 2.5 mg/kg measured during 1 to 24 hrs by LC-MS method; format: ADME, organism-based; details: Sprague-Dawley, in vivo
[21] = system: Rattus norvegicus; assay: Antinociceptive activity in orally dosed Sprague-Dawley rat model of carrageenan-induced foot paw hyperalgesia assessed as paw withdrawal latency; format: functional, organism-based
[22] = system: Rattus norvegicus; assay: as §4; format: ADME, organism-based; design: dose 2.5 mg/kg, route oral; details: in vivo
[23] = system: Rattus norvegicus; assay: Antiinflammatory activity in orally dosed Sprague-Dawley rat model of carrageenan-induced foot paw edema assessed as reduction in edema by plethysmometry; format: functional, organism-based
[24] = system: Rattus norvegicus; assay: as §5; format: ADME, organism-based; details: in vivo
[25] = Apparent oral clearance in Sprague-Dawley rat at 5 mg/kg, iv measured during 1 to 24 hrs by LC-MS method; format: ADME, organism-based; design: dose 5 mg/kg, route oral; details: in vivo
[26] = Volume of distribution in Sprague-Dawley rat at 5 mg/kg, iv measured during 1 to 24 hrs by LC-MS method; format: ADME, organism-based; design: dose 5 mg/kg, route intravenous; details: in vivo
[27] = (§6) AUC (0 to infinity) in Sprague-Dawley rat at 5 mg/kg, iv measured during 1 to 24 hrs by LC-MS method; format: ADME, organism-based, Plasma; design: time infinity, dose 5 mg/kg, route intravenous; details: Sprague-Dawley, plasma
[28] = system: Rattus norvegicus; assay: Half life in Sprague-Dawley rat at 5 mg/kg, iv measured during 1 to 24 hrs by LC-MS method; format: ADME, organism-based; design: dose 5 mg/kg, route intravenous; details: in vivo
[29] = Cmax in Sprague-Dawley rat at 5 mg/kg, iv measured during 1 to 24 hrs by LC-MS method; format: ADME, organism-based; design: dose 5 mg/kg, route intravenous; details: in vivo
[30] = as §1; format: ADME, organism-based; design: dose 10 mg/kg, route oral; details: Sprague-Dawley, in vivo
[31] = as §2; format: ADME, organism-based, Plasma; design: time infinity, dose 10 mg/kg, route oral; details: Sprague-Dawley, plasma
[32] = as §3; format: ADME, organism-based; details: Sprague-Dawley, in vivo
[33] = system: Rattus norvegicus; assay: as §6; format: ADME, organism-based, Plasma; design: time infinity, dose 5 mg/kg, route intravenous; details: in vivo
[34] = system: Rattus norvegicus; assay: Antiarthritic activity in Lewis rat model of adjuvant-induced arthritis administrated by oral gavage once daily; format: functional
[35] = biological target: T1, Prostaglandin G/H synthase 2 (Homo sapiens, UniProt P35354); assay: Inhibition of human recombinant COX2 pre-incubated for 15 mins before fluorometric substrate addition by fluorescence based assay
T1 sequence (P35354 whole entry): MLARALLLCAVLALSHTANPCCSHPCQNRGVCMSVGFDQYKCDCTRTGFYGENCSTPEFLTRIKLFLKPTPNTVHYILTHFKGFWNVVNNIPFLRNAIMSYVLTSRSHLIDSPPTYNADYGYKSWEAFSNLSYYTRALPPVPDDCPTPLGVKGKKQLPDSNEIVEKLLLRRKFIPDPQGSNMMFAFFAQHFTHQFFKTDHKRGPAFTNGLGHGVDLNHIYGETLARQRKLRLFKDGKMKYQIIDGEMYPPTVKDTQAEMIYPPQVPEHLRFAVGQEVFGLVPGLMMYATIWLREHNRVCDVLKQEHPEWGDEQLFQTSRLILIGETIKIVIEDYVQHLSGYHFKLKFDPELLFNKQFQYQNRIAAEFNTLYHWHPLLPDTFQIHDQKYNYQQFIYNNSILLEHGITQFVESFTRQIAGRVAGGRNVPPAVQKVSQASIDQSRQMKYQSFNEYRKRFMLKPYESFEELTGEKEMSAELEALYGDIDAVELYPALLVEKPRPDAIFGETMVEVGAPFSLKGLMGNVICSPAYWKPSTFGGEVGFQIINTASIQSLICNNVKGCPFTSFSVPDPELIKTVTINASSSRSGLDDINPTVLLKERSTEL

Sequence of Prostaglandin G/H synthase 1 (P23219 whole entry): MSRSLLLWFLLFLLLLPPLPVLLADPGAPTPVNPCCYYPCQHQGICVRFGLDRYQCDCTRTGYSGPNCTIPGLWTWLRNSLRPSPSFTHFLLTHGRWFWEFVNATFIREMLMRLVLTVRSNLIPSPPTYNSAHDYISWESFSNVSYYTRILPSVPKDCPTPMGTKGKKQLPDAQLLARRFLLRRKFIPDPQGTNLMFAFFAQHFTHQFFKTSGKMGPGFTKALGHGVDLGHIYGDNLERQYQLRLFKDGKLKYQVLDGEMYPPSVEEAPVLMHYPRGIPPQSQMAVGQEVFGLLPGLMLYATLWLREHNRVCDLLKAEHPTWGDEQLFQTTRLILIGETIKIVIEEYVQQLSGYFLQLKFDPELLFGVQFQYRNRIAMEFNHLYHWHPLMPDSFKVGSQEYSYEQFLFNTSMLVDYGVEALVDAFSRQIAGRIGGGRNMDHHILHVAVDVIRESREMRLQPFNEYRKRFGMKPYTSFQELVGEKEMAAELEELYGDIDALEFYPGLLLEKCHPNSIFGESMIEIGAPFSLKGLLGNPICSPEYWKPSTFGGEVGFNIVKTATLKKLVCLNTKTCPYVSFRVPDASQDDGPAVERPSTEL

SMILES: [2H]C([2H])([2H])c1cc(Cl)cc2c1O[C@H](C(F)(F)F)C(C(=O)O)=C2
IC50 [6]: > 100 µM

SMILES: Cc1cc(Cl)cc2c1OC(C(F)(F)F)C(C(=O)O)=C2 (stereo unspecified)
Cmax [15]: 2720 ng/mL | t1/2 [16]: 1.75 h | EC50 [3]: 0.61 mg/kg | AUC [4]: 1440.446 ng·h/mL | CL/F [17]: 9.12 mL/min/kg | Tmax [18]: 0.25 h | Cmax [8]: 4130 ng/mL | AUC [19]: 4627.624 ng·h/mL | t1/2 [11]: 0.59 h | bioavailability [20]: 128% | Vd [13]: 0.59 L/kg | CL/F [14]: 11.8 mL/min/kg

SMILES: Cc1cc(Cl)c2c(c1)C=C(C(=O)O)C(C(F)(F)F)O2 (stereo unspecified)
IC50 [6]: > 100 µM

SMILES: [2H]C([2H])([2H])c1cc(Cl)cc2c1OC(C(F)(F)F)C(C(=O)O)=C2 (stereo unspecified)
EC50 [21]: 3.33 mg/kg | EC50 [3]: 0.45 mg/kg | AUC [4]: 14043.753 ng·h/mL | CL/F [22]: 1.1 mL/min/kg | EC50 [23]: 6.48 mg/kg | Cmax [8]: 9070 ng/mL | AUC [19]: 38900 µg/L.hr | t1/2 [11]: 3.909 h | F [24]: 110.7% | Vd [13]: 0.404 L/kg | CL/F [14]: 1.2 mL/min/kg

SMILES: CC(C)(C)c1cc2c(cc1Cl)C=C(C(=O)O)[C@@H](C(F)(F)F)O2 [TIGEMOCOXIB]
CL/F [25]: 2.67 mL/min/kg | Vd [26]: 1.35 L/kg | Vd [1]: 2.314 L/kg | AUC(0-inf) [27]: 31300 ng·h/mL | t1/2 [28]: 5.78 h | Cmax [2]: 8150 ng/mL | Tmax [5]: 0.75 h | Cmax [29]: 37200 ng/mL | CL/F [30]: 4.03 mL/min/kg | AUC(0-inf) [31]: 42200 ng·h/mL | bioavailability [32]: 67.5% | t1/2 [12]: 6.68 h

SMILES: [2H]C([2H])([2H])c1cc(Br)cc2c1OC(C(F)(F)F)C(C(=O)O)=C2 (stereo unspecified)
CL/F [25]: 1.28 mL/min/kg | Vd [26]: 0.461 L/kg | EC50 [21]: 2.19 mg/kg | Vd [1]: 0.53 L/kg | AUC [33]: 66436.832 ng·h/mL | t1/2 [28]: 4.186 h | ED50 [34]: 0.42 mg/kg | EC50 [3]: 0.27 mg/kg | Cmax [29]: 39000 ng/mL | EC50 [23]: 3 mg/kg | IC50 [35]: 0.039 µM | CL/F [30]: 1.2 mL/min/kg | AUC [9]: 142686.966 ng·h/mL | bioavailability [32]: 107%

Next, values leading:

Vd [1]: 1.25 L/kg | Cmax [2]: 6590 ng/mL | EC50 [3]: 0.77 mg/kg | AUC [4]: 4898.988 ng·h/mL | Tmax [5]: 0.438 h | IC50 [6]: > 100 µM | CL/F [7]: 3.25 mL/min/kg | Cmax [8]: 5040 ng/mL | AUC [9]: 12846.927 ng·h/mL | F [10]: 78.5% | t1/2 [11]: 1.5 h | t1/2 [12]: 3.09 h | Vd [13]: 0.45 L/kg | CL/F [14]: 3.45 mL/min/kg
SMILES: Cc1cc2c(c(C)c1Cl)C=C(C(=O)O)C(C(F)(F)F)O2 (stereo unspecified)

IC50 [6]: > 100 µM
SMILES: [2H]C([2H])([2H])c1cc2c(c(C([2H])([2H])[2H])c1Cl)C=C(C(=O)O)[C@@H](C(F)(F)F)O2
